Experimental data reported in article PMC7126465 (Bioorganic & Medicinal Chemistry, 2017).

How the values were obtained:
[1] = system: herpesviruses (HSV, VZV, HCMV); assay: Anti-herpesvirus activity overall; type: cell-based; settings: HEL cells
HSV-1 (Kos) = settings: read-out: EC50 (HEL) HSV-1 (Kos); HEL cells; ref Krecmerova et al. (Ref. [7]); cited from earlier work
HSV-2 (G) = settings: read-out: EC50 (HEL) HSV-2 (G); HEL cells; ref Krecmerova et al. (Ref. [7]); cited from earlier work
VZV TK+ (Oka) = settings: read-out: EC50 (HEL) VZV TK+ (Oka); HEL cells; ref Krecmerova et al. (Ref. [7]); cited from earlier work
VZV TK− (07-1) = settings: read-out: EC50 (HEL) VZV TK− (07-1); HEL cells; ref Krecmerova et al. (Ref. [7]); cited from earlier work
HCMV (AD-169) = settings: read-out: EC50 (HEL) HCMV (AD-169); HEL cells; ref Krecmerova et al. (Ref. [7]); cited from earlier work
HCMV (Davis) = settings: read-out: EC50 (HEL) HCMV (Davis); HEL cells; ref Krecmerova et al. (Ref. [7]); cited from earlier work
Vaccinia virus = settings: read-out: EC50 (HEL) Vaccinia virus; HEL cells; ref Krecmerova et al. (Ref. [7]); cited from earlier work
[2] = system: human embryonic lung (HEL) cells; settings: ref Krecmerova et al. (Ref. [7]); cited from earlier work
[3] = system: human embryonic lung (HEL) cells; settings: read-out: Cytotoxicity CC50, ref Krecmerova et al. (Ref. [7]); cited from earlier work

Nc1ncn(CCOCP(=O)(O)O)c(=O)n1 [Compound 6, 1-[2-(phosphonomethoxy)ethyl]-5-azacytosine]
Anti-herpesvirus activity (in words) [1]: marginal anti-herpesvirus activity
EC50 (HSV-1 (Kos)): 39 µM
EC50 (HSV-2 (G)): 103 µM
EC50 (VZV TK+ (Oka)): 100 µM
EC50 (VZV TK− (07-1)): 40 µM
EC50 (HCMV (AD-169)): 195 µM
EC50 (HCMV (Davis)): 147 µM
EC50 (Vaccinia virus): > 398 µM
Cytotoxicity MCC [2]: >398 µM
CC50 [3]: > 200 µM
